PubChem BioAssay AID449762 (Southern Research Specialized Biocontainment Screening …, 2010)
Results filed as inconclusive are left out.

Tested on: M. tuberculosis H37Rv growth inhibition, 7H9 media
Assay: M. tuberculosis growth inhibition, HTS (AID 449762);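 note: bacterial growth assessed after seven days of incubation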
Details: for IC90: measured here: IC90 growth inhibition

## COc1cc2ccccc2cc1C(=O)Nc1ccc(Cc2ccncc2)cc1
  IC50: 2.26 µM
  IC90: 16.8 µM

## CCc1ccc(C2c3[nH]c4ccccc4c3CCN2C(=O)c2ccc(=O)n(C)n2)cc1 (stereo not given)
  IC50: 49.6 µM
  IC90: 74.3 µM

## CCC(C)N1CCC2(CC1)N=c1c(c3c4c5c(C)c(O)c3c(O)c1=NC(=O)C(C)=CC=C[C@H](C)[C@H](O)[C@@H](C)[C@@H](O)[C@@H](C)[C@H](OC(C)=O)[C@H](C)[C@@H](OC)C=CO[C@@](C)(O5)C4=O)N2 (stereo not given in full)
  IC50: < 0.2 µM
  IC90: < 0.2 µM

## O=C(Nc1cc(C(F)(F)F)ccc1Cl)C(Sc1cccc[n+]1[O-])c1ccccc1 (stereo not given)
  IC50: 39.2 µM
  IC90: 47.9 µM

## CC1CC(C)CN(C(=O)C2CCC(CNc3c(N4CCCCC4)c(=O)c3=O)CC2)C1 (stereo not given)
  IC50: 19.3 µM
  IC90: 71.7 µM

## CC(C)n1cnc2c(NCc3ccccc3)cc(Cc3ccc(F)cc3)cc21
  IC50: 26.9 µM
  IC90: 36.5 µM

## Cc1ccc(CNC(=O)c2sc3nc4c(c(C(F)(F)F)c3c2N)CCC4)cc1
  IC50: 35.7 µM
  IC90: 50.9 µM

## O=c1[nH]c(CSc2cccc[n+]2[O-])nc2ccccc12
  IC50: 96.4 µM
  IC90: > 100 µM

## C[n+]1c(-c2ccccc2)c2cc(N)ccc2c2ccc(N)cc21
  IC50: 7.95 µM
  IC90: 10.2 µM

## CN1CCN(/N=C/c2c3ccccc3c(Cl)c3ccccc23)CC1
  IC50: 77.7 µM
  IC90: > 100 µM

## CC(=O)N1C(Nc2ccc(Cl)cc2)CCN1c1ccccc1 (stereo not given)
  IC90: > 100 µM

## Cc1ccc2nc(-c3ccncc3)cc(-c3ccccc3)c2c1
  IC50: 36.1 µM
  IC90: 47.2 µM

## CC1(C)Cc2c(C#N)c(N3CCN(C(=O)c4ccccc4)CC3)nc(Cc3ccccc3)c2CO1
  IC50: 28.8 µM
  IC90: > 100 µM

## C(C#CCCCCCCCCC[n+]1ccccc1)#CCCCCCCCCC[n+]1ccccc1
  IC50: 2.8 µM
  IC90: 4.43 µM

## CN1CCN(c2ccc(C(=O)c3cn(-c4ccc(F)c(Cl)c4)nn3)cc2)CC1
  IC90: > 100 µM

## COc1ccc(C2=Nn3c(nnc3-c3ccccc3F)SC2)cc1OC1CCCC1
  IC50: 8.9 µM
  IC90: 19.6 µM

## Cc1ccc(S(=O)(=O)NCc2ccc(C(=O)NCCCN3CCC(Cc4ccccc4)CC3)cc2)cc1
  IC50: 79.8 µM
  IC90: > 100 µM

## CC(C)(C)c1ccc(Cn2nnc3c(=O)[nH]c(C4CCCN(C(=O)Cc5cccs5)C4)nc32)cc1 (stereo not given)
  IC50: 35.2 µM
  IC90: 47.8 µM

## COc1ccc(C(C(O)C(=O)c2c[nH]c3ccccc23)N2CCN(c3ccc(OC)cc3)CC2)cc1 (stereo not given)
  IC50: 100 µM
  IC90: > 100 µM

## Cc1ccc(NC(=O)COC(=O)CCc2c[nH]c3ccccc23)cc1[N+](=O)[O-]
  IC50: 0.68 µM
  IC90: 4.74 µM

## CN(C)C(=O)c1ccc(NC(=O)COC(=O)c2cc3c(s2)CCCCC3)cc1
  IC50: 45.8 µM
  IC90: > 100 µM

## [O-][n+]1c2ccccc2c2n1CCN1CCOC21c1ccc(Cl)cc1 (stereo not given)
  IC50: 26.1 µM
  IC90: 68 µM

## Cc1ccc(NC(=S)N(CCCN2CCCC2)Cc2cccn2Cc2ccc(Cl)cc2)cc1C
  IC50: 86 µM
  IC90: > 100 µM

## CCOC(=O)c1ccc(NC(=S)NCCc2ccc(F)cc2)cc1
  IC50: 42.4 µM
  IC90: > 100 µM

## Oc1ccc(F)c2cccnc12
  IC50: 5.26 µM
  IC90: 6.88 µM

## O=C(CCl)NCCCCCCCCCNC(=O)CCl
  IC50: < 0.2 µM
  IC90: < 0.2 µM

## Cc1c(CN2CCC(CO)(Cc3cccc(C(F)(F)F)c3)CC2)c2ccccc2n1C
  IC50: 20.6 µM
  IC90: 28.9 µM

## CCCc1ccc2oc(C(=O)N(C)Cc3nccs3)c(C)c2c1
  IC50: 32.1 µM
  IC90: 60.3 µM

## CCc1nnc(NS(=O)(=O)c2ccc(N/C=C\C(=O)c3cccc(OC)c3)cc2)s1
  IC50: 16.2 µM
  IC90: 35.5 µM

## Cc1ccc(-n2cc(CN(C)Cc3nccn3C)c(-c3cccc(C)c3)n2)cc1
  IC50: 9.52 µM
  IC90: 13.3 µM

## CN1CCN2c3ccccc3Cc3ccccc3C2C1 (stereo not given)
  IC50: 42.8 µM
  IC90: > 100 µM

## Cn1nc([N+](=O)[O-])nc1Sc1ccc(C(C)(C)C)cc1
  IC50: 6.13 µM
  IC90: 7.62 µM

## CCCC(=O)Nc1ccc(C(=O)/C=C/c2ccc(SC)cc2)cc1
  IC50: 22.9 µM
  IC90: 37.1 µM

## O=C(NNC1CC(=O)N(c2ccc(Br)cc2)C1=O)c1ccccn1 (stereo not given)
  IC50: 5.9 µM
  IC90: 13.6 µM

## COc1ccc(C2(c3ccc(OC)cc3)NC(=O)N(CC(=O)Nc3ccc(OC(F)F)cc3)C2=O)cc1
  IC50: 29.9 µM
  IC90: 79.9 µM

## CC(C)C[C@H](NC(=O)c1nc[nH]c1C(=O)NC1CCN(C(=O)OC(C)(C)C)CC1)C(=O)OCc1ccccc1
  IC50: 22.4 µM
  IC90: 25.4 µM

## COCc1nnc(NC(=O)C2CC(=O)N(c3ccc(C)c(Cl)c3)C2)s1 (stereo not given)
  IC50: 51.1 µM
  IC90: > 100 µM

## CCCCOC(=O)CSc1nnc(-c2ccc(Cl)cc2Cl)o1
  IC50: < 0.2 µM
  IC90: 1.85 µM

## Nc1cc(Cl)c2nonc2c1[N+](=O)[O-]
  IC50: 5.83 µM
  IC90: 6.64 µM

## NC(=O)N=Nc1c2[nH]c3ccccc3nc-2c2ccccc12
  IC50: 4.36 µM
  IC90: 7.08 µM

## CN1C(=O)/C(=C/c2ccccc2Cl)Sc2ccc(C(=O)NCc3cccnc3)cc21
  IC50: 23.2 µM
  IC90: 68.9 µM

## COc1cc(OC)cc(-c2cc3nc(C)c(CCC(=O)NC(C)CCc4ccco4)c(C)n3n2)c1 (stereo not given)
  IC50: 44.3 µM
  IC90: > 100 µM

## Cc1ccc2c(c1)c1c3n2CCN=C3CCC1
  IC50: 10.3 µM
  IC90: 19 µM

## O=c1cc2[nH]c3ccccc3c(=O)n2nc1-c1ccccc1
  IC50: 6.91 µM
  IC90: 18 µM

## Nn1c(SCc2ccccc2)nc2ccccc21
  IC50: 28 µM
  IC90: > 100 µM

## CN1CCN(Cc2nc3ccccc3c(=O)n2Cc2nc(-c3ccc4ccccc4c3)cs2)CC1
  IC50: 22.3 µM
  IC90: 25.7 µM

## CCN1CCN(Cc2ccc(NC(=O)c3ccc(C)c(/C=C/c4cnc(Nc5cc(N6CCNCC6)nc(C)n5)cn4)c3)cc2C(F)(F)F)CC1
  IC50: 35.1 µM
  IC90: 57.9 µM

## Nc1ccc(C(=O)OCCCc2nc3cc4ccccc4cc3[nH]2)cc1
  IC50: 45.6 µM
  IC90: 51.7 µM

## Cc1cccc(/C=C2/S/C(=N/N=C3\CC4CCC3(C)C4(C)C)NC2=O)c1 (stereo not given)
  IC50: 7.92 µM
  IC90: > 100 µM

## CCOc1ccc(NC(=O)CSc2nc(O)c(C)c(=O)n2-c2ccc(F)cc2)cc1
  IC50: 8.48 µM
  IC90: 20.3 µM

## CCOC(=O)CSc1cc(=O)n(C)c2cc(Cl)ccc12
  IC50: < 0.2 µM
  IC90: 73.9 µM

## CCOC(=O)C1CCCc2c1[nH]c1c(C(N)=O)cccc21 (stereo not given)
  IC50: 4.13 µM
  IC90: 13.2 µM

## O=C(Nc1ccc(C2=NCCN2)cc1)c1ccc(Cl)c(C(=O)Nc2ccc(C3=NCCN3)cc2)c1
  IC50: 11.3 µM
  IC90: 12.3 µM

## Cc1ccc(NC(=O)CCl)cc1S(=O)(=O)N1CCCCCC1
  IC50: 2.6 µM
  IC90: 5.03 µM

## CCCCCCN=C1CC(C)(C)CC(=O)/C1=C(/O)CCC
  IC50: 43 µM
  IC90: > 100 µM

## CCOC(=O)c1nnc(-c2ccccc2)nc1Sc1ccccc1Cl
  IC50: 20.7 µM
  IC90: 49.2 µM

## CC(C)Nc1nc(NC(C)C)nc(N(C)N)n1
  IC50: 5.75 µM
  IC90: 7.57 µM

## CCCCCCCCNC(C)C(O)c1ccc(SC(C)C)cc1 (stereo not given)
  IC50: 22.5 µM
  IC90: 31.8 µM

## N#Cc1cccc(NC(=O)N2CCC(c3nc4c(nnn4Cc4cccc(Cl)c4)c(=O)[nH]3)CC2)c1
  IC50: 12.4 µM
  IC90: 13.5 µM

## CC(C)Cc1nc2oc3c(N4CCN(CCO)CC4)ncnc3c2c2c1CCCC2
  IC50: 18.3 µM
  IC90: 26.1 µM

## CO[C@@H]1[C@@H](OC(N)=O)[C@@H](O)C(Oc2ccc3c(O)c(NC(=O)c4ccc(O)c(CC=C(C)C)c4)c(=O)oc3c2C)OC1(C)C (stereo not given in full)
  IC50: 4.98 µM
  IC90: 9.66 µM
